Reference: patent publication US11026942B2, “Agent for preventing and/or treating Alzheimer's disease” (KYOTO UNIVERSITY, priority 2015, dated 2021)

What was measured:
Type in all cases: cell-based, human
[1] = tested on: Aβ38; assay: Aβ38 in FAD1 iPS cell-derived nerve cells (secondary screening); parameters: scale not given here
Description: (§1) To further study reproducibility of the candidate drugs obtained by the primary screening, secondary screening was conducted. In addition to Aβ40, Aβ42, Aβ42/40 ratio, Aβ38, Aβ43, sAPPα, sAPPβ were also studied and each numerical value was obtained.

[2] = tested on: Aβ43; assay: Aβ43 in FAD1 iPS cell-derived nerve cells (secondary screening); parameters: scale not given here
Description: as §1

[3] = tested on: sAPPα; assay: sAPPα in FAD1 iPS cell-derived nerve cells (secondary screening); parameters: scale not given here; conditions: secondary screening, FAD1 iPS cell-derived nerve cells
Description: as §1

[4] = tested on: sAPPβ; assay: sAPPβ in FAD1 iPS cell-derived nerve cells (secondary screening); parameters: sAPPβ: scale not given here; conditions: secondary screening, FAD1 iPS cell-derived nerve cells
Description: as §1

[5] = tested on: Aβ42/40 ratio; assay: Aβ42/40 ratio in FAD1 iPS cell-derived nerve cells (primary/secondary screening, dose dependency); conditions: secondary screening
Summary of the method: (§2)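 Cerebral cortex neurons were induced from FAD1 patient iPS cells by doxycycline-inducible NGN2, delivered by PiggyBac. Aβ40 and Aβ42 in the culture medium gave the Aβ42/40 ratio, with dose dependency examined in primary and secondary screens. The secondary screen also covered Aβ38, Aβ43, sAPPα and sAPPβ.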

[6] = tested on: Aβ42; assay: Aβ42 in FAD1 iPS cell-derived nerve cells (primary/secondary screening, dose dependency); conditions: secondary screening, FAD1 iPS cell-derived nerve cells, numerical value (Aβ change rate)
Summary of the method: as §2

`Oc1c(Cl)cc(Cl)cc1Sc1cc(Cl)cc(Cl)c1O` [compound 88, BITHIONOL] was tested, and the Aβ38 [1] was 1.03, the Aβ43 [2] was 0.85 and the sAPPα [3] was 0.78. For the same compound, the sAPPβ [4] was 0.92, the “Ratio Aβ42/40” value [5] was 0.97 and the Aβ42 [6] was 0.93.
For `Cc1cccc(O)c1` [compound 89, CRESOL], the Aβ38 [1] was 0.93, the Aβ43 [2] was 0.89 and the sAPPα [3] was 0.71. The sAPPβ [4] was 0.58, the “Ratio Aβ42/40” value [5] was 0.91 and the Aβ42 [6] was 0.81.
Work on `Cc1cc2cc3c(C)cc(=O)oc3c(C)c2o1` [compound 91, TRIOXSALEN] yielded an Aβ38 [1] of 0.97, an Aβ43 [2] of 1.01 and a sAPPα [3] of 0.82. For the same compound, the sAPPβ [4] was 1.02, the “Ratio Aβ42/40” value [5] was 0.95 and the Aβ42 [6] was 0.84.
In the case of `O=c1oc2cc(O)ccc2s1` [compound 92, TIOXOLONE], the Aβ38 [1] is reported as 0.76, the Aβ43 [2] is reported as 0.67 and the sAPPα [3] is reported as 0.76. For the same compound, the sAPPβ [4] was 0.63, the “Ratio Aβ42/40” value [5] was 0.83 and the Aβ42 [6] was 0.55.
`CC(=O)Nc1cccc(O)c1` [compound 93, METACETAMOL] showed an Aβ38 [1] of 0.95, an Aβ43 [2] of 0.74 and a sAPPα [3] of 0.83. The sAPPβ [4] was 0.89, the “Ratio Aβ42/40” value [5] was 0.86 and the Aβ42 [6] was 0.77.
`Oc1ccc(Cl)cc1Cc1cc(Cl)ccc1O` [compound 94, DICHLOROPHENE] was tested, and the Aβ38 [1] was 0.94, the Aβ43 [2] was 0.87 and the sAPPα [3] was 0.78. The sAPPβ [4] was 0.85, the “Ratio Aβ42/40” value [5] was 0.89 and the Aβ42 [6] was 0.79.
Work on `Cc1c(C(N)=O)cc([N+](=O)[O-])cc1[N+](=O)[O-]` [compound 95, DINITOLMIDE] yielded an Aβ38 [1] of 1, an Aβ43 [2] of 0.98 and a sAPPα [3] of 0.95. For the same compound, the sAPPβ [4] was 1.02, the “Ratio Aβ42/40” value [5] was 0.95 and the Aβ42 [6] was 0.9.
In the case of `CC(C)(Sc1cc(C(C)(C)C)c(O)c(C(C)(C)C)c1)Sc1cc(C(C)(C)C)c(O)c(C(C)(C)C)c1` [compound 96, PROBUCOL], the Aβ38 [1] is reported as 0.75, the Aβ43 [2] is reported as 0.65 and the sAPPα [3] is reported as 1. The sAPPβ [4] was 1.07, the “Ratio Aβ42/40” value [5] was 0.7 and the Aβ42 [6] was 0.6.
`COc1cccc([C@@]2(O)CCCC[C@@H]2CN(C)C)c1` [compound 99, TRAMADOL] was tested, and the Aβ38 [1] was 1.17, the Aβ43 [2] was 1.02 and the sAPPα [3] was 1.04. The sAPPβ [4] was 1.11, the “Ratio Aβ42/40” value [5] was 0.93 and the Aβ42 [6] was 0.98.
Work on `CC1(C)O[C@@H]2[C@@H](CO[C@@]3(COS(N)(=O)=O)OC(C)(C)O[C@@H]23)O1` [compound 100, TOPIRAMATE] yielded an Aβ38 [1] of 0.9, an Aβ43 [2] of 1.02 and a sAPPα [3] of 0.81. The sAPPβ [4] was 0.78, the “Ratio Aβ42/40” value [5] was 0.92 and the Aβ42 [6] was 0.79.
For `CC1(C)C2CC[C@@]1(C)C(=O)C2` [compound 101, CAMPHOR (1R)], the Aβ38 [1] was 1.08, the Aβ43 [2] was 0.91 and the sAPPα [3] was 0.92. For the same compound, the sAPPβ [4] was 0.87, the “Ratio Aβ42/40” value [5] was 1.01 and the Aβ42 [6] was 0.95.
`C#C[C@]1(O)CC[C@H]2[C@@H]3CCC4=Cc5oncc5C[C@]4(C)[C@H]3CC[C@@]21C` [compound 102, DANAZOL] gave an Aβ38 [1] of 1.02, an Aβ43 [2] of 1.07 and a sAPPα [3] of 0.79. For the same compound, the sAPPβ [4] was 0.81, the “Ratio Aβ42/40” value [5] was 1.04 and the Aβ42 [6] was 0.93.
`C[C@H](CCC(=O)O)[C@H]1CC[C@H]2[C@@H]3C(=O)C[C@@H]4CC(=O)CC[C@]4(C)[C@H]3CC(=O)[C@]12C` [compound 103, DEHYDROCHOLIC ACID] gave an Aβ38 [1] of 1.09, an Aβ43 [2] of 1.01 and a sAPPα [3] of 0.75. For the same compound, the sAPPβ [4] was 0.78, the “Ratio Aβ42/40” value [5] was 0.99 and the Aβ42 [6] was 0.95.
`COc1cc2c(cc1OC)[C@@]13CCN4CC5=CCO[C@H]6CC(=O)N2[C@H]1[C@H]6[C@H]5C[C@H]43` [compound 106, BRUCINE] was tested, and the Aβ38 [1] was 1.13, the Aβ43 [2] was 0.87 and the sAPPα [3] was 0.84. The sAPPβ [4] was 0.85, the “Ratio Aβ42/40” value [5] was 1.04 and the Aβ42 [6] was 0.98.
For `O=C1CCc2cc(OCCCCc3nnnn3C3CCCCC3)ccc2N1` [compound 107, CILOSTAZOL], the Aβ38 [1] was 1.01, the Aβ43 [2] was 0.82 and the sAPPα [3] was 0.78. The sAPPβ [4] was 0.68, the “Ratio Aβ42/40” value [5] was 0.86 and the Aβ42 [6] was 0.85.
Work on `CC(=O)OC1CCC2(C)C(=CCC3C4CCC(=O)C4(C)CCC32)C1` (stereo not drawn) [compound 109, PRASTERONE ACETATE] yielded an Aβ38 [1] of 0.9, an Aβ43 [2] of 0.85 and a sAPPα [3] of 0.69. The sAPPβ [4] was 0.55, the “Ratio Aβ42/40” value [5] was 0.7 and the Aβ42 [6] was 0.68.
With `C[C@@H]1O[C@@H](OC[C@H]2O[C@@H](Oc3c(-c4ccc(OCCO)c(OCCO)c4)oc4cc(OCCO)cc(O)c4c3=O)[C@H](O)[C@@H](O)[C@@H]2O)[C@H](O)[C@H](O)[C@H]1O` [compound 110, TROXERUTIN] the Aβ38 [1] was 0.97, the Aβ43 [2] was 0.95 and the sAPPα [3] was 0.74. For the same compound, the sAPPβ [4] was 0.51, the “Ratio Aβ42/40” value [5] was 0.93 and the Aβ42 [6] was 0.88.
`CCCCCCCCCCCCCCCCCCCCCCO` [compound 111, DOCOSANOL] gave an Aβ38 [1] of 1.03, an Aβ43 [2] of 0.83 and a sAPPα [3] of 0.79. For the same compound, the sAPPβ [4] was 0.83, the “Ratio Aβ42/40” value [5] was 0.9 and the Aβ42 [6] was 0.86.
In the case of `CCN(CC)C(=S)SSC(=S)N(CC)CC` [compound 112], the Aβ38 [1] is reported as 1.1, the Aβ43 [2] is reported as 0.98 and the sAPPα [3] is reported as 0.78. The sAPPβ [4] was 0.89, the “Ratio Aβ42/40” value [5] was 0.97 and the Aβ42 [6] was 0.91.
`CCCCCCCCCCCCCCCC[N+](C)(C)C` [compound 113, CETRIMONIUM] gave an Aβ38 [1] of 0.56, an Aβ43 [2] of 0.56 and a sAPPα [3] of 0.76. The sAPPβ [4] was 0.59, the “Ratio Aβ42/40” value [5] was 0.74 and the Aβ42 [6] was 0.71.
`N[C@@H]1CONC1=O` [compound 114, CYCLOSERINE] gave an Aβ38 [1] of 1.06, an Aβ43 [2] of 0.85 and a sAPPα [3] of 0.84. For the same compound, the sAPPβ [4] was 0.82, the “Ratio Aβ42/40” value [5] was 0.95 and the Aβ42 [6] was 0.92.
With `Nc1ccn([C@@H]2O[C@H](CO)[C@@H](O)[C@@H]2O)c(=O)n1` [compound 115, CYTARABINE] the Aβ38 [1] was 0.99, the Aβ43 [2] was 0.81 and the sAPPα [3] was 0.74. The sAPPβ [4] was 0.69, the “Ratio Aβ42/40” value [5] was 0.9 and the Aβ42 [6] was 0.8.
`NC(=O)NC1NC(=O)NC1=O` (stereo not drawn) [compound 116, ALLANTOIN] was tested, and the Aβ38 [1] was 1.07, the Aβ43 [2] was 1.13 and the sAPPα [3] was 1.05. For the same compound, the sAPPβ [4] was 0.93, the “Ratio Aβ42/40” value [5] was 0.96 and the Aβ42 [6] was 0.88.
For `C=CCSCC1Nc2cc(Cl)c(S(N)(=O)=O)cc2S(=O)(=O)N1` (stereo not drawn) [compound 117, ALTHIAZIDE], the Aβ38 [1] was 1.03, the Aβ43 [2] was 0.91 and the sAPPα [3] was 0.92. The sAPPβ [4] was 0.7, the “Ratio Aβ42/40” value [5] was 0.91 and the Aβ42 [6] was 0.81.
`O=C(O)[C@H]1/C(=C/CO)O[C@@H]2CC(=O)N21` [compound 118, CLAVULANIC ACID] gave an Aβ38 [1] of 1.01, an Aβ43 [2] of 0.75 and a sAPPα [3] of 0.88. For the same compound, the sAPPβ [4] was 1, the “Ratio Aβ42/40” value [5] was 0.88 and the Aβ42 [6] was 0.84.
In the case of `Cc1cc2c(cc1S(N)(=O)=O)S(=O)(=O)CCC2` [compound 119], the Aβ38 [1] is reported as 1.14, the Aβ43 [2] is reported as 1.16 and the sAPPα [3] is reported as 1.07. For the same compound, the sAPPβ [4] was 0.87, the “Ratio Aβ42/40” value [5] was 0.78 and the Aβ42 [6] was 0.74.
For `Nc1ccc(S(=O)(=O)c2ccc(N)cc2)cc1` [compound 120, DAPSONE], the Aβ38 [1] was 1.06, the Aβ43 [2] was 0.8 and the sAPPα [3] was 0.74. The sAPPβ [4] was 0.6, the “Ratio Aβ42/40” value [5] was 0.84 and the Aβ42 [6] was 0.83.
